# Measured values published in patent US20090098222A1, “Accelerating Agent of Calcium Absorption” (priority 2006, published 2009).
# Tests used:
# [1] = test system: rats fed a calcium-deficient diet; test: Effects on urinary excretion of calcium (metabolic cage); format: in vivo, rat; conditions: total for three days, 40 mL of water containing the substance, FIG. 2
# Experimental: (§1) […]. Male Wistar rats weighing 200-250 g, and about 120 g especially in the experiment of studying calcium born absorption (Test Example 3), were used as an experimental animal.
# Usually, calcium concentrations in blood are constantly maintained by biogenic homeostasis and it is difficult to utilize it as an index of calcium absorption. Accordingly, the urinary excretion of calcium was assayed in place of it.
# Rats were kept in a metabolic cage and 40 mL of water containing calcium (Ca), Gum Arabic (GA), or Ca and GA (Ca+GA) was given for three days. […]. After recovering urine, urinary concentration of calcium and urine volume were measured.
# [2] = test system: rats fed a calcium-deficient diet; test: Effects on bone absorption of calcium (30-day oral administration); format: in vivo, rat; conditions: 30 days, 1 mg (Ca)/day, GA coadministered with Ca, compared with the Ca-treated group, FIG. 6
# Description: as §1
# Next, it was studied whether the accelerating effect of GA on calcium absorption reaches bone absorption, and prevents the decease of calcium content in the bone, using rats fed a calcium-deficient diet.
# Calcium (Ca-treated group), or calcium and GA ([Ca+GA]-treated group) were orally administered to rats for 30 days with an amount of 1 mg (ca)/day, and changes of hardness and mineral (Ca, Mg, P, Zn) content of the femur, or ALP in blood were observed. Rats were fed a calcium-deficient diet in order to eliminate an effect of calcium contained in the normal diet.
smiles,measurement,setting,value
"C[C@H](O)C(=O)[O-].C[C@H](O)C(=O)[O-].[Ca+2] [Ca, calcium L-lactate]",urinary excretion of calcium,[1],not increased
same,ALP in blood,[2],elevation of ALP in blood was observed
